Molecules are shown by their SMILES.

The target of the experiment is T1, UCHL1 (Homo sapiens, UniProt P09936).
T1 construct: made in house; host or cells: HEK293T
T1 sequence (P09936 1-223): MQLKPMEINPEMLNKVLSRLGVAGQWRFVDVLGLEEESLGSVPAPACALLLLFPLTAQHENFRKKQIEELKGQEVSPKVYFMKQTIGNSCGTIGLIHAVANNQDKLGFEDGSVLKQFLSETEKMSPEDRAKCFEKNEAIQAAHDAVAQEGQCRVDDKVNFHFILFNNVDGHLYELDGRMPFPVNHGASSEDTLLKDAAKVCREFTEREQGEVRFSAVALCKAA
Description: UCHL1 biochemical IC50 assay (fluorescence polarisation). Particulars: 30 min enzyme/compound pre-incubation at room temp, read after 2 hr incubation, read-out: Activity range (UCHL1 biochemical IC50 assay). In short, it runs like this: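 FLAG-UCHL1 purified from transfected HEK293T cells was preincubated 30 min at room temperature with compound (8 points, 100–0.03 μM final) in Tris pH 7.5 buffer with Tween 20, BSA and beta-mercaptoethanol. Reaction started with 50 nM TAMRA-peptide–ubiquitin isopeptide substrate; fluorescence polarisation (ex 540/em 590 nm) read at once and after 2 h.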

As for `CNC(=O)c1cccc(-c2cnc(NC(=O)[C@H]3CCN(C#N)C3)s2)c1` [Example 233, (S)-1-cyano-N-(5-(3-(methylcarbamoyl)phenyl)thiazol-2-yl)pyrrolidine-3-carboxamide], the IC50 is less than 1 µM.
On to `N#CN1CCC(C(=O)Nc2cnc(-c3ccccc3)s2)C1` (stereo not drawn) [Example 10, 1-cyano-N-(2-phenylthiazol-5-yl)pyrrolidine-3-carboxamide], for which the IC50 lay in the range of 10 to 30 µM.
Next, `N#CN1CCC(C(=O)Nc2nc3ccccc3[nH]2)C1` (stereo not drawn) [Example 23, N-(1H-benzo[d]imidazol-2-yl)-1-cyano-pyrrolidine-3-carboxamide]: 10 to 30 µM; `CC1CC(C(=O)Nc2cc(-c3ccccc3)[nH]n2)CN1C#N` (mixture of isomers) [Example 90, 1-cyano-5-methyl-N-(5-phenyl-1H-pyrazol-3-yl)pyrrolidine-3-carboxamide]: 10 to 30 µM.
Regarding `CCCn1cnc2cc(NC(=O)C3CCN(C#N)C3)ccc21` (stereo not drawn) [Example 40, 1-cyano-N-(1-propyl-1H-benzo[d]imidazol-5-yl)pyrrolidine-3-carboxamide], the IC50 lay in the range of 1 to 10 µM.
The figure for `N#CN1CC[C@H](C(=O)Nc2cn(-c3ccc4[nH]ncc4c3)cn2)C1` [Example 300, (S)-N-(1-(1H-indazol-5-yl)-1H-imidazol-4-yl)-1-cyanopyrrolidine-3-carboxamide] is less than 1 µM.
In the case of `CS(=O)(=O)Nc1cccc(-c2cnc(NC(=O)C3CCN(C#N)C3)s2)c1` (stereo not drawn) [Example 116, 1-cyano-N-(5-(3-(methyl-sulfonamido)phenyl)thiazol-2-yl)pyrrolidine-3-carboxamide], the IC50 is less than 1 µM.
As for `CC(=O)NCC1CCCCN1c1cnc(NC(=O)C2CCN(C#N)C2)s1` (stereo not drawn) [Example 93, N-(5-(2-(acetamidomethyl)piperidin-1-yl)thiazol-2-yl)-1-cyanopyrrolidine-3-carboxamide], the IC50 was less than 1 µM.
The figure for `N#CN1CC[C@H](C(=O)Nc2ncc(-c3ccc(C(F)(F)F)cc3)s2)C1` [Example 68, (S)-1-cyano-N-(5-(4-(trifluoromethyl)phenyl)thiazol-2-yl)pyrrolidine-3-carboxamide] is less than 1 µM; for `N#Cc1ccc(-c2cnc(NC(=O)[C@H]3CCN(C#N)C3)s2)cc1OC(F)(F)F` [Example 219, (S)-1-cyano-N-(5-(4-cyano-3-(trifluoromethoxy)phenyl)thiazol-2-yl)pyrrolidine-3-carboxamide] it is less than 1 µM; for `COCCOC(=O)N1CCc2nc(NC(=O)[C@H]3CCN(C#N)C3)sc2C1` [Example 199, 2-methoxyethyl (S)-2-(1-cyanopyrrolidine-3-carboxamido)-6,7-dihydrothiazolo[5,4-c]pyridine-5(4H)-carboxylate] it is 1 to 10 µM.
For `N#CN1CC[C@H](C(=O)Nc2ncc(N3CCc4ccccc4C3)s2)C1` [Example 98, (S)-1-cyano-N-(5-(3,4-dihydroisoquinolin-2(1H)-yl)thiazol-2-yl)pyrrolidine-3-carboxamide], the concentration for half-maximal inhibition (IC50) fell in the range of 1 to 10 µM.
Next, `N#CN1CC2CC2(C(=O)Nc2ncc(-c3ccccc3)s2)C1` (stereo not drawn) [Example 279, 3-cyano-N-(5-phenylthiazol-2-yl)-3-azabicyclo[3.1.0]hexane-1-carboxamide]: 1 to 10 µM; `N#CN1CCC(C(=O)Nc2ccc(-n3ccnc3)cn2)C1` (stereo not drawn) [Example 30, N-(5-(1H-imidazol-1-yl)pyridin-2-yl)-1-cyano-pyrrolidine-3-carboxamide]: 10 to 30 µM.
Take `CNC(=O)c1cc(-c2cnc(NC(=O)[C@H]3CCN(C#N)C3)s2)ccc1Cl` [Example 238, (S)-N-(5-(4-chloro-3-(methylcarbamoyl)phenyl)thiazol-2-yl)-1-cyanopyrrolidine-3-carboxamide]: the IC50 was less than 1 µM.
Next, `N#CN1CC[C@H](C(=O)Nc2cc(-c3ccnc4nccn34)ccn2)C1` [Example 252, (S)-1-cyano-N-(4-(imidazo[1,2-a]pyrimidin-5-yl)pyridin-2-yl)pyrrolidine-3-carboxamide]: 1 to 10 µM; `N#CN1CC[C@H](C(=O)Nc2cc(-c3cn[nH]c3)ccn2)C1` [Example 291, (S)-N-(4-(1H-pyrazol-4-yl)pyridin-2-yl)-1-cyanopyrrolidine-3-carboxamide]: 1 to 10 µM.
Next, `N#CN1CCC(C(=O)Nc2cc(-c3ccccc3)ccn2)C1` (stereo not drawn) [Example 31, 1-cyano-N-(4-phenylpyridin-2-yl)pyrrolidine-3-carboxamide]: 1 to 10 µM; `N#CN1CC[C@H](C(=O)Nc2cnc3ccccc3c2)C1` [Example 272, (S)-1-cyano-N-(quinolin-3-yl)pyrrolidine-3-carboxamide]: 1 to 10 µM.
The figure for `N#CN1CC[C@H](C(=O)Nc2cn3cc(C(F)(F)F)ccc3n2)C1` [Example 270, (S)-1-cyano-N-(6-(trifluoromethyl)imidazo[1,2-a]pyridin-2-yl)pyrrolidine-3-carboxamide] is less than 1 µM.
On to `Cc1ccc(NC(=O)C2CCN(C#N)C2)nc1` (stereo not drawn) [Example 26, 1-cyano-N-(5-methylpyridin-2-yl)pyrrolidine-3-carboxamide], for which the half-inhibitory concentration (IC50) is 10 to 30 µM.
Next, `Cc1cnc(NC(=O)C2CCN(C#N)C2)s1` (stereo not drawn) [Example 7, 1-cyano-N-(5-methylthiazol-2-yl)pyrrolidine-3-carboxamide]: 1 to 10 µM.
The figure for `N#CN1CC[C@H](C(=O)Nc2cnc(N3CCCC3)cn2)C1` [Example 108, (S)-1-cyano-N-(5-(pyrrolidin-1-yl)pyrazin-2-yl)pyrrolidine-3-carboxamide] is 1 to 10 µM; for `N#CN1CC[C@H](C(=O)Nc2cc(-c3ccccc3)cnn2)C1` [Example 275, (S)-1-cyano-N-(5-phenylpyridazin-3-yl)pyrrolidine-3-carboxamide] it is 1 to 10 µM.
For the molecule `N#CN1CC[C@H](C(=O)Nc2cn(Cc3ccccn3)cn2)C1` [Example 168, (S)-1-cyano-N-(1-(pyridin-2-ylmethyl)-1H-imidazol-4-yl)pyrrolidine-3-carboxamide], the IC50 was less than 1 µM.
Next, `Cc1cnc(NC(=O)[C@@H]2CN(C#N)C[C@H]2C)s1` [Example 83, (3S,4S)-1-cyano-4-methyl-N-(5-methylthiazol-2-yl)pyrrolidine-3-carboxamide]: 1 to 10 µM; `N#CN1CC[C@H](C(=O)Nc2cn3ccc(Br)cc3n2)C1` [Example 50, (S)-N-(7-bromoimidazo[1,2-a]pyridin-2-yl)-1-cyano-pyrrolidine-3-carboxamide]: 1 to 10 µM; `N#CN1CC[C@H](C(=O)Nc2ncc(-c3ccc(F)c(C(N)=O)c3)s2)C1` [Example 236, (S)-N-(5-(3-carbamoyl-4-fluorophenyl)thiazol-2-yl)-1-cyanopyrrolidine-3-carboxamide]: less than 1 µM.
Next, `Cc1ccc(-c2ccc(NC(=O)C3CCN(C#N)C3)nc2)cc1` (stereo not drawn) [Example 134, 1-cyano-N-(5-(p-tolyl)pyridin-2-yl)pyrrolidine-3-carboxamide]: 1 to 10 µM; `CC(=O)Nc1ccccc1-c1cnc(NC(=O)C2CCN(C#N)C2)s1` (stereo not drawn) [Example 115, N-(5-(2-acetamiclophenyl)thiazol-2-yl)-1-cyanopyrrolidine-3-carboxamide]: 1 to 10 µM.
The figure for `N#Cc1ccc(-c2cnc(NC(=O)[C@H]3CCN(C#N)C3)s2)cc1F` [Example 214, (S)-1-cyano-N-(5-(4-cyano-3-fluorophenyl)thiazol-2-yl)pyrrolidine-3-carboxamide] is less than 1 µM.
With `Cc1ccnc(-n2cnc(NC(=O)[C@H]3CCN(C#N)C3)c2)c1` [Example 174, (S)-1-cyano-N-(1-(4-methylpyridin-2-yl)-1H-imidazol-4-yl)pyrrolidine-3-carboxamide], the IC50 was less than 1 µM.
As for `N#CN1CCC(C(=O)Nc2ncc(/C=C/C3CC3)s2)C1` (stereo not drawn) [Example 113, (E)-1-cyano-N-(5-(2-cyclopropylvinyl)thiazol-2-yl)pyrrolidine-3-carboxamide], the IC50 was less than 1 µM.
Next, `COC(=O)N1CCc2nc(NC(=O)[C@H]3CCN(C#N)C3)sc2C1` [Example 198, methyl (S)-2-(1-cyanopyrrolidine-3-carboxamido)-6,7-dihydrothiazolo[5,4-c]pyridine-5(4H)-carboxylate]: less than 1 µM; `N#CN1CCC(C(=O)Nc2ncc(CN3CCCC3)s2)C1` (stereo not drawn) [Example 141, 1-cyano-N-(5-(pyrrolidin-1-ylmethyl)thiazol-2-yl)pyrrolidine-3-carboxamide]: 1 to 10 µM; `CCNC(=O)c1cccc(-c2cnc(NC(=O)[C@H]3CCN(C#N)C3)s2)n1` [Example 225, (S)-6-(2-(1-cyanopyrrolidine-3-carboxamido)thiazol-5-yl)-N-ethylpicolinamide]: less than 1 µM.
The figure for `Cc1noc(C)c1Cn1cnc(NC(=O)[C@H]2CCN(C#N)C2)c1` [Example 171, (S)-1-cyano-N-(1-((3,5-dimethylisoxazol-4-yl)methyl)-1H-imidazol-4-yl)pyrrolidine-3-carboxamide] is 1 to 10 µM; for `CN(C)S(=O)(=O)N1CCc2nc(NC(=O)[C@H]3CCN(C#N)C3)sc2C1` [Example 212, (S)-1-cyano-N-(5-(N,N-dimethylsulfamoyl)-4,5,6,7-tetrahydrothiazolo[5,4-c]pyridin-2-yl)pyrrolidine-3-carboxamide] it is less than 1 µM.
Next, `N#CN1CC[C@H](C(=O)Nc2ncc(-c3ccc(F)cc3)s2)C1` [Example 66, (S)-1-cyano-N-(5-(4-fluorophenyl)thiazol-2-yl)pyrrolidine-3-carboxamide]: less than 1 µM.

These data come from US11472798B2 (Mission Therapeutics Limited, priority 2014, dated 2022).
